Laboratory results: PMC6051913 (2018)

Tests used:
[1] = test system: Bs 4-4 (RNA, riboswitch) GAUGUAACUGAAUGAAAUGGUGAAGGACGGGUCCACUUGGAAGAUAAGAAGCAAUUCUUAUCAAGAGAAGCAGAGGGACUGGCCCGACGAAGCUUCAGCAACCGGUGUAAUGGCGAUCAGCCAUGACCAAGGUGCUAAAUCCAGCAAGUUGUUGAGUAGAGUGUGAGCUCCGUAACUAGUUACAUC; assay: fluorescence titration; details: 125 mM KCl, 10 mM MgCl2; 40 mM HEPES pH 7.5, 37 °C, 100 nM RNA, 10 µM DFHBI
[2] = test system: Bc 1–5 (RNA, riboswitch) GAUGUAACUGAAUGAAAUGGUGAAGGACGGGUCCACUUAUAACGAGAAGCGGAGGGACUGGCCCAAUGAAGCUUCAGCAACCAUUCAUUGCGAUGAAAAGGUGCUAAAUCCAGCAAAGGGAACUUUGGCAGAUAAGUUGUUGAGUAGAGUGUGAGCUCCGUAACUAGUUACAUC; assay: fluorescence titration; details: 125 mM KCl, 10 mM MgCl2; 40 mM HEPES pH 7.5, 37 °C, 100 nM RNA, 10 µM DFHBI

dissociation constant [1]: 1.0 µM
KD [2]: ~ 1.7 µM
SMILES: C[S+](CC[C@H](N)C(=O)O)C[C@H]1O[C@@H](n2cnc3c(N)ncnc32)[C@H](O)[C@@H]1O (some centres unmarked)
